Data as given in US8003801B2 (The Scripps Research Institute, priority 2005, dated 2011).
Read-outs that look alike come from different tables or passages of the source.

Experiments:
[1] = test system: KB-31 human epidermoid cancer cell line; experiment: 72 hour growth-inhibition (cytotoxicity) assay, KB-31 cells; type: cell-based; conditions: Homo sapiens
[2] = test system: 1A9/A8, EpoA-resistant 1A9 cell line (β274 Thr→Ile); experiment: 72 hour growth-inhibition (cytotoxicity) assay, 1A9/A8 cells; type: cell-based, human; conditions: for IC50: Homo sapiens, 1A9; for RAEpoB (relative activity), 1A9/A8: ratio of IC50 of EpoB to IC50 of the tested compound in the concurrent assay; for RRp (relative resistance), 1A9/A8: IC50 of 1A9/A8 divided by IC50 of the parental cell line
[3] = test system: KB-8511, Taxol-resistant (Pgp-overexpression) KB cell line; experiment: 72 hour growth-inhibition (cytotoxicity) assay, KB-8511 cells
Procedure: In addition, further cytotoxicity studies were carried out using a pair of drug-sensitive parental human epidermoid carcinoma cells (KB-31) and its Taxol™-resistant Pgp-overexpressing subline (KB-5811).

[4] = test system: 1A9 human ovarian cancer cell line; experiment: 72 hour growth-inhibition (cytotoxicity) assay, 1A9 cells; type: cell-based; conditions: for IC50: Homo sapiens, 1A9; for RAEpoB (relative activity), 1A9: ratio of IC50 of EpoB to IC50 of the tested compound in the concurrent assay
[5] = test system: 1A9/PTX10, Taxol-resistant 1A9 cell line (β270 Phe→Val); experiment: 72 hour growth-inhibition (cytotoxicity) assay, 1A9/PTX10 cells; type: cell-based, human; conditions: for IC50: Homo sapiens, 1A9/ptx-10; for RAEpoB (relative activity), 1A9/PTX10: ratio of IC50 of EpoB to IC50 of the tested compound in the concurrent assay; for RRp (relative resistance), 1A9/PTX10: IC50 of 1A9/PTX10 divided by IC50 of the parental cell line 1A9
[6] = test system: A2780/AD10, drug-resistant clone of human ovarian carcinoma A2780 overexpressing P-glycoprotein; experiment: 72 hour growth-inhibition (cytotoxicity) assay, A2780/AD10 cells; type: cell-based; conditions: for IC50: Homo sapiens, A2780, 72 hour growth inhibition, sulforhodamine-B staining, mean of 3-5 experiments ± SEM; for RRp (relative resistance), A2780/AD10: IC50 of A2780/AD10 divided by IC50 of the parental cell line
[7] = test system: drug-sensitive and drug-resistant human cancer cell lines; experiment: Cytotoxicity assays across the panel of cell lines (summary in words); type: cell-based; conditions: summary of Tables 1A-1C
[8] = KB 3-1, read-out: IC50, KB-31 (Table 2)
[9] = Table 2, tested epothilone, unit from Table 1A note a, read-out: IC50, 1A9/A8 (Table 2)
[10] = read-out: IC50, KB-5811 (Table 2), Table 2, tested epothilone, cell line KB-5811, unit from Table 1A note a
[11] = Table 2, tested epothilone, unit from Table 1A note a, read-out: IC50, 1A9 (Table 2)
[12] = Table 2, tested epothilone, unit from Table 1A note a, read-out: IC50, 1A9/PTX10 (Table 2)
[13] = KB 3-1, 72 h, read-out: KB-31 IC50
[14] = 72 hour growth inhibition, sulforhodamine-B staining, mean of 3-5 experiments ± SEM, read-out: 1A9/A8 IC50
[15] = read-out: KB-8511 IC50, 72 hour growth inhibition, methylene blue staining, mean of 3-5 experiments ± SEM
[16] = 72 hour growth inhibition, sulforhodamine-B staining, mean of 3-5 independent experiments ± standard error of the mean, read-out: 1A9 IC50
[17] = 72 hour growth inhibition, sulforhodamine-B staining, mean of 3-5 experiments ± SEM, read-out: 1A9/PTX10 IC50

Row | SMILES | IC50 [1, 8] [nM] | IC50 [2, 9] [nM] | RAEpoB (relative activity), 1A9/A8 [2] | IC50 [3, 10] [nM] | IC50 [4, 11] [nM] | RAEpoB (relative activity), 1A9 [4] | IC50 [5, 12] [nM] | RAEpoB (relative activity), 1A9/PTX10 [5] | IC50 [1, 13] [nM] | IC50 [2, 14] [nM] | RRp (relative resistance), 1A9/A8 [2] | IC50 [3, 15] [nM] | IC50 [6] [nM] | RRp (relative resistance), A2780/AD10 [6] | IC50 [4, 16] [nM] | IC50 [5, 17] [nM] | RRp (relative resistance), 1A9/PTX10 [5] | cytotoxicity across the tested cell lines, in words [7]
1 | CSc1nc(/C=C(\C)[C@@H]2C[C@@H]3C[C@]3(C)CCC[C@H](C)[C@H](O)[C@@H](C)C(=O)C(C)(C)[C@@H](O)CC(=O)O2)cs1 [Compound 4, reference compound] | 0.2 | 2.4 | 2.7 | 0.12 | 0.1 | 6.0 | 0.7 | 4.4 |  |  |  |  |  |  |  |  |  | 
2 | CSCc1nc(/C=C(\C)[C@@H]2C[C@@H]3O[C@]3(C)CCC[C@H](C)[C@H](O)[C@@H](C)C(=O)C(C)(C)[C@@H](O)CC(=O)O2)cs1 [Compound 5] |  |  |  |  |  |  |  |  | 1.38 ± 0.05 | 18.6 ± 11.3 | 5.2 | 1.97 ± 0.25 | 82.2 ± 49.6 | 15.2 | 3.6 ± 1.4 | 43.3 ± 12 | 12.0 | less potent than EpoB, exhibited high potency against several of the tested cell lines
3 | CC(=O)SCc1nc(/C=C(\C)[C@@H]2C[C@@H]3O[C@]3(C)CCC[C@H](C)[C@H](O)[C@@H](C)C(=O)C(C)(C)[C@@H](O)CC(=O)O2)cs1 [Compound 6] |  |  |  |  |  |  |  |  | 1.18 ± 0.12 | 49.8 ± 34.5 | 9.2 | 8.39 ± 1.37 | 8.6 ± 3.3 | 45.3 | 5.4 ± 1.1 | 28.2 ± 9.3 | 5.2 | less potent than EpoB, exhibited high potency against several of the tested cell lines
4 | C/C(=C\c1nc2ccccc2s1)[C@@H]1C[C@@H]2O[C@]2(C)CCC[C@H](C)[C@H](O)[C@@H](C)C(=O)C(C)(C)[C@@H](O)CC(=O)O1 [Compound 7] | 0.21 | 0.7 | 14.3 | 0.08 | 0.19 | 5.2 | 2.6 | 3.0 | 0.21 ± 0.07 | 0.7 ± 0.4 | 3.7 | 0.08 ± 0.04 | 707 | 7.4 | 0.19 ± 0.1 | 2.6 ± 2.5 | 13.7 | excellent cytotoxicity across the range of cell lines, being more potent than EpoB
5 | C/C(=C\c1c(I)ncn1C)[C@@H]1C[C@@H]2O[C@]2(C)CCC[C@H](C)[C@H](O)[C@@H](C)C(=O)C(C)(C)[C@@H](O)CC(=O)O1 [Compound 10] |  |  |  |  |  |  |  |  | > 1000 | > 750 |  | > 1000 | 1070 | 5.9 | > 750 | > 750 |  | 
6 | C/C(=C\c1cn(C)cn1)[C@@H]1C[C@@H]2O[C@]2(C)CCC[C@H](C)[C@H](O)[C@@H](C)C(=O)C(C)(C)[C@@H](O)CC(=O)O1 [Compound 11] |  |  |  |  |  |  |  |  | 277 ± 122 | 150 | 0.8 | > 1000 | > 750 |  | 181 ± 81.6 | > 750 |  | 
7 | C/C(=C\c1nc(Br)c(Br)n1C)[C@@H]1C[C@@H]2O[C@]2(C)CCC[C@H](C)[C@H](O)[C@@H](C)C(=O)C(C)(C)[C@@H](O)CC(=O)O1 [Compound 12] |  |  |  |  |  |  |  |  | > 1000 | > 750 |  | > 1000 | 574 |  | > 750 | > 750 |  | 
8 | CSc1nc(/C=C(\C)[C@@H]2C[C@@H]3O[C@]3(C)CCC[C@H](C)[C@H](O)[C@@H](C)C(=O)C(C)(C)[C@@H](O)CC(=O)O2)c(SC)n1C [Compound 13] |  |  |  |  |  |  |  |  | 240 ± 34 | 574 |  | 247 ± 47.9 | 1.3 ± 0.3 | 2.6 | > 750 | > 750 |  | 
